Experimental data taken from patent publication US9084782B2, “Chemical inhibitors of cholesterol biosynthesis and venous angiogenesis” (The Regents of the University of California, priority 2011, dated 2015).
Entries after “also recorded” stand apart in the source; their conditions may differ.

System: mCherry-RhoCLVL
Experiment: Localization of chimeric protein mCherry-RhoCLVL (geranylgeranylation)
Type: in vivo, zebrafish
Conditions: 10 μM aplexone, 80% epiboly
Experimental: mCherry-RhoCLVL was generated by PCR amplification of mCherry from pmCherry-N3 (a generous gift from S. Walsh) using primers containing sequences coding for the C-terminal 20 amino acid residues of human RhoA. mCherry-RasCVLS was amplified from pME-mCherryCAAX (a generous gift from C.-B. Chien). The PCR products were sub-cloned into pcGlobin2 (Ro et al., 2004) and mRNA was synthesized using the mMESSAGE mMACHINE kit (Ambion). Zebrafish embryos were injected with 250 pg of mCherry-RhoCLVL and mCherry-RasCVLS mRNA at 1-cell stage, and raised with or without the presence of 10 μM aplexone at 25° C. and fixed at 80% epiboly. Cellular localizations of the mCherry chimeras were analyzed with confocal microscopy.

Compound: CC(=O)C1=CCC(c2ccccc2)N(S(=O)(=O)c2ccc(C)cc2)C1 (stereo not shown) [aplexone]
- subcellular localization of mCherry-rhoCAAX (CLVL) chimeric protein: no longer localized predominantly to the membrane; also recorded: mis-localized to the nucleus and cytoplasm
